In brackets after ≈: the same amount, converted by molar mass.
How the values were obtained:
[1] = solubility in methanol; type: physicochemical; conditions: organic solvent or mixture, 25° C.
[2] = solubility in water (stepwise addition of water, visual inspection); type: physicochemical; conditions: 25 °C, thermodynamic from solid
Experimental: A clear water-soluble soybean-based extract (2 liters) obtained in the same manner as described in Example 1. The extract solution was then lyophilized using a lyophilizer manufactured by Bertis Corp for 2 days at −85° C. under 10 mm Torr, resulting in 350 g of a pale yellow dry cake. […] The solubility was tested by first adding 1 g of the dried extract into 1 ml of pure water at 25° C. with agitation for 5 min. If the extract was not completely dissolved (visual inspection), another 1 ml of water was added and the resulting mixture agitated for 5 minutes at 25° C. Next, the mixture was visually inspected to determine if the extract had completely dissolved. If not, water at 25° C. was added in 1 ml increments and agitated for 5 minutes after each addition of water until the extract was completely dissolved by visual inspection. .

Structure (SMILES): O=c1c(-c2ccc(O)cc2)coc2cc(O[C@@H]3O[C@H](CO)[C@@H](O)[C@H](O)[C@H]3O)cc(O)c12 [genistin]
- solubility [1]: ~5000 µg/mL (≈ 11.6 mM)
- solubility at 5 min [2]: ~1000 µg/mL (≈ 2.31 mM)

Reference: patent US6541062B2, “Water-soluble soybean extracts” (priority 1999, dated 2003)
